Measurements taken from patent US20050075282A1, “Materials and methods for inhibiting the development of epilepsy” (priority 2003, published 2005).
Several values for one entry are separate records, joined by “and”; a condition that tells them apart may be missing. Identical values can stand only once.

What was measured:
[1] = system: T1, HDAC (293T cells); conditions: 293T cells-HDAC assay; reference 6; cited from earlier work
T1 construct: IC50; other: 293T cells-HDAC assay

[2] = system: HDAC; conditions: HDAC inhibitors in rats; cited from earlier work
[3] = system: HDAC; conditions: cited from earlier work; for IC50: read-out: IC50 (HDAC inhibition)
[4] = target: purified nuclear histone deacetylase; conditions: Calf thymus, reference 2; cited from earlier work
[5] = system: NMDAR; assay: Whole cell voltage clamp of isolated DGCs, response to NMDA, after in vivo HDAC inhibitor treatment; design: species or system rats; conditions: for increase of DGC NMDAR current densities in control rats: treated control vs control (VPA) or control+vehicle (TSA)
[6] = system: GABAR; assay: Whole cell voltage clamp of isolated dentate granule cells (DGCs), response to GABA, after in vivo HDAC inhibitor treatment; design: species or system rats
[7] = system: rats post pilocarpine-induced status epilepticus; assay: Chronic epilepsy monitoring (video) after pilocarpine-induced SE; format: in vivo; conditions: TSA injected three times, 2 hr, 6 hr and 24 hr post SE; seven weeks monitoring; vs vehicle
Method: Trichostatin A (TSA) administration. TSA was administered in the lateral ventricle {−0.8 mm A-P; 1.5 LAT; 3.2 DOWN (Paxinos and Watson 1982)} one hour prior to pilocarpine injection to induce SE. The cannula guide had been previously implanted using stereotaxic surgery two weeks prior to experiment to allow animals properly recovery. TSA (5 μl) was delivered via tubing connected to a pump at a concentration of 5 μg/ml (vehicle, 0.9% saline) at a rate of 1 μl/min for 5 minutes through 29-gauge tubing attached to the cannula. Successful delivery of TSA was verified by histological examination of cannula position and a moving mark inside the tubing. In additional studies (FIGS. 5 and 6), TSA was administered I.P., 2, 6, and 24 hrs post SE.
Pilocarpine-induced status epilepticus. Rats were injected with (−) scopolamine methyl nitrate (1 mg/kg body weight, s.c.) 30 min prior to pilocarpine hydrochloride (405 mg/kg body weight, s.c.). Controls received a sub-convulsive dosage of pilocarpine (40 mg/kg, s.c.). After one hour of SE, diazepam was used to stop SE.
Chronic epilepsy monitoring in TSA treatment. […] This effect lasted for at least 5-7 days, during which time animals had no behavioral seizures (latent period). Animals sequentially developed spontaneous seizures (epilepsy). […] Animals were video monitored for 7 weeks post SE, and the frequency and severity of seizures was quantified.

[8] = system: AMPAR; assay: Whole cell voltage clamp of isolated DGCs, response to kainate + cyclothiazide, after in vivo HDAC inhibitor treatment; design: species or system rats
[9] = system: HeLa cell nuclear extract HDACs; conditions: Enhances histone acetylation in HeLa cell nuclear extract; reference 4; cited from earlier work
[10] = DGCs 1 Wk post SE, TSA in the lateral ventricle
[11] = control rats, TSA in the lateral ventricle
[12] = control rats, VPA in drinking water
[13] = DGCs 1 Wk post SE, VPA study (FIG. 2B)

CCCC(=O)[O-].[Na+] [Sodium Butyrate, Sodium butyrate]
IC50 [1]: 300 to 400 µM
EC50 [2]: 200 to 500 µM
IC50 [3]: 1500 µM
IC50 [4]: 250 µM

CC(/C=C/C(=O)NO)=C\[C@@H](C)C(=O)c1ccc(N(C)C)cc1 [TSA, Trichostatin A]
effect on NMDAR current density ([5]; DGCs 1 Wk post SE, TSA i.p. post SE (FIG. 6)): no significant effect
NMDAR Charge transfer density [5, 10]: 153.7 ± 16.6 (n = 31) (msec) × (nA)/(pF)
NMDAR Current density [5, 10]: 117.3±16.0 pA/pF and 117.3 ± 16.0 (n = 31) pA/pF
NMDAR Desensitization % [5, 10]: 38.5 ± 3.5 (n = 31) %
NMDAR Desensitization tau [5, 10]: 1222.1 ± 173.8 (n = 28) msec
NMDAR Charge transfer density [5, 11]: 196.2 ± 14.4 (n = 39) (msec) × (nA)/(pF)
NMDAR Desensitization % [5, 11]: 27.1 ± 2.2 (n = 39) %
NMDAR Desensitization tau [5, 11]: 1262.6 ± 197.5 (n = 37) msec
NMDAR Current density ([5]; control rats, TSA in the lateral ventricle, NMDA 100 μM, Mg-free): 121.0±9.0 pA/pF and 121.0 ± 9.0 (n = 39) pA/pF
increase of DGC NMDAR current densities in control rats [5]: 83.1%
EC50 [2]: 0.05 to 0.5 µM
IC50 / working range (HDAC inhibition) ([3]; in vitro): nM affinity range
GABAR Current density ([6]; DGCs 1 Wk post SE, 1-hr post SE TSA i.p. injection (FIG. 6)): 235.1±62.3 pA/pF
GABAR Charge transfer density [6, 10]: 185.9 ± 18.4 (n = 30) (msec) × (nA)/(pF)
GABAR Desensitization % [6, 10]: 83.1 ± 2.0 (n = 30) %
GABAR Current density ([6]; DGCs 1 Wk post SE, TSA in the lateral ventricle one hour prior to pilocarpine, GABA 1 mM): 225.6±17.3 pA/pF and 225.6 ± 17.3 (n = 32) pA/pF
GABAR Charge transfer density [6, 11]: 169.7 ± 14.2 (n = 37) (msec) × (nA)/(pF)
GABAR Desensitization % [6, 11]: 83.8 ± 1.5 (n = 36) %
GABAR Current density ([6]; control rats, TSA in the lateral ventricle, GABA 1 mM): 217.9±12.8 pA/pF and 217.9 ± 12.8 (n = 36) pA/pF
reduction of average spontaneous seizure frequency [7]: more than 70%
increase of AMPAR current densities in control rats ([8]; Control+TSA vs Control+vehicle): 43.8%
effect on reduced AMPAR function / current densities ([8]; DGCs 1 Wk post SE): totally prevented
AMPAR Charge transfer density [8, 10]: 703.3 ± 49.9 (n = 33) (msec) × (nA)/(pF)
AMPAR Charge transfer density [8, 11]: 907.6 ± 57.7 (n = 41) (msec) × (nA)/(pF)

CCCC(CCC)C(=O)[O-].[Na+] [VPA, 2-propyl-pentanoic acid-sodium salt]
IC50 [1]: 700 to 1000 µM
NMDAR Desensitization % ([5]; DGCs 1 Wk post SE): 43.9 ± 2.7 (n = 61) %
NMDAR Desensitization tau ([5]; DGCs 1 Wk post SE): 768.6 ± 51.1 (n = 51) Msec
NMDAR Current density ([5]; DGCs 1 Wk post SE, NMDA 100 μM, Mg-free): 74.0 ± 9.5 (n = 62) Pa/pF
NMDAR current densities ([5]; control rats + VPA (FIG. 4)): 102.1±17.5 pA/pF
NMDAR Charge transfer density [5, 12]: 123.2 ± 18.0 (n = 25) (msec) × (nA)/(pF)
NMDAR Desensitization % [5, 12]: 35.6 ± 4.6 (n = 25) %
NMDAR Desensitization tau [5, 12]: 669.8 ± 77.3 (n = 21) Msec
increase of DGC NMDAR current densities in control rats [5]: 49.9%
EC50 [2]: 300 to 700 µM
IC50 [3]: 400 µM
GABAR Charge transfer density ([6]; DGCs 1 Wk post SE): 217.0 ± 16.4 (n = 73) (msec) × (nA)/(pF)
GABAR Desensitization % ([6]; DGCs 1 Wk post SE): 76.5 ± 2.1 (n = 73) %
GABAR current densities [6, 13]: 234.6±12.7 pA/pF
GABAR Current density ([6]; DGCs 1 Wk post SE, GABA 1 mM): 234.6 ± 12.7 (n = 74) Pa/pF
GABAR current densities ([6]; control rats + VPA (FIG. 2B)): 243.04±19.25 pA/pF
GABAR Charge transfer density [6, 12]: 239.8 ± 27.8 (n = 22) (msec) × (nA)/(pF)
GABAR Current density ([6]; control rats, VPA in drinking water 1.0 g/kg daily, GABA 1 mM): 243.0 ± 19.3 (n = 22) Pa/pF
GABAR Desensitization % ([6]; control rats, VPA in drinking water, 2-second agonist application): 70.3 ± 4.2 (n = 22) %
Ki [9]: 510 µM
AMPAR Charge transfer density ([8]; DGCs 1 Wk post SE): 459.8 ± 30.8 (n = 66) (msec) × (nA)/(pF)
effect on reduced AMPAR function / current densities ([8]; DGCs 1 Wk post SE): partially restore
AMPAR Charge transfer density [8, 12]: 780.4 ± 53.3 (n = 26) (msec) × (nA)/(pF)

CCCC(CCC)C(N)=O [VPM, valpromide]
NMDAR Charge transfer density ([5]; DGCs 1 Wk post SE): 180.0 ± 22.4 (n = 26) (msec) × (nA)/(pF)
NMDAR Desensitization % ([5]; DGCs 1 Wk post SE): 46.7 ± 4.5 (n = 25) %
NMDAR Desensitization tau ([5]; DGCs 1 Wk post SE): 787.8 ± 131.5 (n = 23) Msec
NMDAR current densities ([5]; DGCs 1 Wk post SE, VPA study (FIG. 4)): 141.1±17.3 pA/pF
GABAR Charge transfer density ([6]; DGCs 1 Wk post SE): 249.5 ± 41.5 (n = 26) (msec) × (nA)/(pF)
GABAR Desensitization % ([6]; DGCs 1 Wk post SE): 77.3 ± 2.7 (n = 27) %
GABAR current densities [6, 13]: 218.63±33.2 pA/pF
GABAR Current density ([6]; DGCs 1 Wk post SE, GABA 1 mM): 218.6 ± 33.2 (n = 30) Pa/pF
AMPAR Charge transfer density ([8]; DGCs 1 Wk post SE): 615.3 ± 42.3 (n = 27) (msec) × (nA)/(pF)
AMPAR current densities ([8]; DGCs 1 Wk post SE, VPA study (FIG. 3)): 302.5±20.2 pA/pF
